Assay results: patent US9974745B2, “Encochleation methods, cochleates and methods of use” (RUTGERS, THE STATE UNIVERSITY OF NEW JERSEY, priority 2003, dated 2018)

Legend:
[1] = tested on: stomachs of rats; test: Gastric irritation (bleeding and ulcerations) in rats; format: in vivo, rat; details: stomachs examined 4 hours post carrageenan injection; samples 2, 3, 7 and 9
Method: A carrageenan model was employed to study the effect of anti-inflammatory cochleates on edema in rat paws. Various aspirin cochleates of the invention were used to treat carrageenan-induced rat paw edema. […] Additionally, rats in all groups were examined for gastric irritation.
Samples 6-10 were prepared in accordance with Example 16, except that the lipid:aspirin molar ratio was 5:1 and soy PS was used instead of DOPS. Samples 4, 5, and 11 were prepared in a similar manner in the absence of a cargo moiety. In all cases, water was used in lieu of TES buffer. All samples were given by oral gavage at 1 hour prior to injection of carrageenan on Day 0 in a volume of 3 mL of 0.5% methylcellulose. […] Volumes of rat paw (in ml) were measured prior to carrageenan injection using a semi-automated plethysmograph (Buxco). At 0 time, 0.1 ml of 1% carrageenan in 0.9% pyrogen free saline was injected into the right hind paw of the rat. The paw volumes (in ml) were measured again 3 hours post carrageenan injection to determine inhibition of paw edema. Four rats from each of groups 2, 3, 6, 7, 8, 9 and 10 and one rat from each of groups 1, 4, 5 and 11 were bled (intravenously, jugular vein, approximately 1 ml blood) at 30 minutes and 4 hours post drug administration. Blood was collected in heparinized vacutainers. […]

[2] = tested on: SKOV3 cells; test: Interaction of ZnTPP-cochleates with SKOV3 cells, confocal fluorescence; format: cell-based
Text: Phase contrast light microscopy and confocal microscopy (Olympus) was used to image liposomal suspensions, cochleates and cells, with and without the aid of fluorescence, which can be used, e.g., to study cellular uptake and intracellular distribution of fluorescently labeled cochleates and cargo moieties. Confocal microscopy is particularly advantageous as it is a 3-dimensional digital imaging device that can be used to effectively view slices of cell culture. This allows verification of the presence of cochleate and other agents within a cell.
In order to study any interaction of the cochleates with cells, ZnTPP-cochleates and free ZnTPP (in solution with DMSO) were introduced to SKOV3 cell cultures, and imaged with fluorescence under a confocal microscope.
Cochleates were prepared with and without ZnTPP as described above, except that prior to introduction of the ZnTPP/solvent, liposomes were formed with 1% diolyl phosphatidylethanolamine (DOPE) liganded to pyrene (purchased Avanti). The DOPE was incorporated into the soy PS liposomes by dissolving both DOPE and lipid in solvent, drying the solvent to a film, and using an aqueous solution to form liposomes. Confocal images were taken at 1 and 24 hours after introduction to SKOV3 cells to study the uptake and any difference in the cellular distribution of cochleate/lipid and the ZnTPP. […]

[3] = HPLC stability of TY in cochleates versus free TY in solution; format: physicochemical
Text: HPLC was used to study the stability of the TY in the cochleates, by measuring the concentration of TY in TY-cochleates as compared to free, i.e., unencochleated TY in solution.

CC(=O)Oc1ccccc1C(=O)O [unencochleated aspirin, aspirin]
incidence and level of severity of gastric irritation [1]: greatest gastric irritation, followed by unencochleated aspirin

COc1ccc2c(c1)c(CC(=O)O)c(C)n2C(=O)c1ccc(Cl)cc1 [indomethacin]
incidence and level of severity of gastric irritation [1]: greatest gastric irritation

C1=Cc2nc1c(-c1ccccc1)c1ccc([n-]1)c(-c1ccccc1)c1nc(c(-c3ccccc3)c3ccc([n-]3)c2-c2ccccc2)C=C1.[Zn+2] [free ZnTPP, Zinc Tetra-Phenyl Porphyrin]
degradation of ZnTPP in SKOV3 cell culture ([2]; at 24 hours): significant degradation | uptake by SKOV3 cells ([2]; confocal fluorescence images at 1 hour and 24 hours): high uptake

COc1cc(/C=C(\C#N)C(N)=O)cc(CSc2nc3ccccc3s2)c1O [free TY, Tyrphostin AG-825]
concentration of degradation products (impurity 1 and impurity 2) over time [3]: degraded over time | TY concentration over time (stability) ([3]; cochleates versus free TY in solution): decreased to zero
